Patent US20230330134A1, “METHOD OF PROPHYLAXIS OF CORONAVIRUS AND/OR RESPIRATORY SYNCYTIAL VIRUS INFECTION” (Starpharma Pty Ltd., priority 2020, published 2023)
Values joined by “and” are separate entries in the source; they are usually repeats but may differ in a detail not shown here. Equal values may be shown once. Read-outs that look alike come from different tables or passages of the source.

Assays:
[1] = tested on: SARS-CoV-2 hCoV-19/Australia/VIC01/2020; test: microbe, parasite or virus in culture; format: cell-based
[2] = tested on: SARS-CoV-2 (hCoV-19/Australia/VIC01/2020); format: cell-based; conditions: 0.345 mg/mL added 0 min to 6 h post-infection; Vero E6; MOI 1; all time points
[3] = tested on: SARS-CoV-2 (Wuhan-Hu-1) Spike-pseudotyped GFP reporter lentiviral particles; format: cell-based; conditions: 10 and 30 mg/mL, added 1 hour prior
[4] = biological target: SARS-CoV-2 spike RBD recombinant protein (Severe acute respiratory syndrome coronavirus 2, UniProt P0DTC2); format: cell-based; conditions: 1 mg/mL in PBS, 1 hour prior to challenge; confocal microscopy
Hep-2 cells = test: Product cytotoxicity (TC50), CCK-8 assay; format: cell-based
[5] = Hygroscopic assessment (European Pharmacopoeia 5.11); format: physicochemical
Method: A hygroscopic assessment was performed as described in European Pharmacopoeia 5.11. Results from the assay are interpreted as follows: deliquescent -sufficient water is absorbed to form a liquid; very hygroscopic - increase in mass is equal to or greater than 15%; hygroscopic - increase in mass is less than 15% and equal to or greater than 2%; slightly hygroscopic - increase in mass is less than 2% and equal to or greater than 0.2% and not hygroscopic - if increase in mass is less than 0.2%, then the compound is not hygroscopic.

[6] = tested on: SARS-CoV-2 2019-nCoV/USA-WAl/2020; test: Antiviral activity in primary human bronchial epithelial cells (HBEpC); format: cell-based; conditions: 1.1, 3.3 and 10 mg/mL added 1 hour prior to infection, day 4, maximum
Calu-3 cells = conditions: Day 4
[7] = tested on: SARS-CoV-2 (hCoV-19/Australia/VIC01/2020); conditions: mixed with virus for 1 hour prior to infection of Vero E6 cells; n=1
[8] = rats
[9] = tested on: Coronavirus strain 229E (ATCC #VR-740); conditions: final 28.76 mg/mL; for CPE in four replicates, Test: MRC-5
[10] = tested on: Coronavirus strain NL63 (ZeptoMetrix Corp. #0810228CF); conditions: final 28.76 mg/mL; for CPE in four replicates, Test: Vero
[11] = 60 seconds exposure, dilution (-Log10) -6
[12] = 60 seconds exposure, dilution (-Log10) -7
[13] = 60 minutes exposure, dilution (-Log10) -7

For astodrimer sodium [SPL7013], which EC50 ([1]; added 1 hour post-infection, Vero cells, MOI 0.05, CPE by MTT after 4 days) is on record?
The EC50 was 0.40 mg/mL.

And the EC50 ([1]; added 1 hour pre-infection, Vero cells, MOI 0.05, CPE by MTT after 4 days)?
Its EC50 is 0.42 mg/mL.

What about the EC50 ([1]; pre- and post-infection assays, read-out: EC50) of the same substance?
The EC50 was 25 µM and 24 µM.

And the “infectious virus titer in supernatant (TCID50) at 8 hours post-infection” value [2]?
The value was “below the lower limit of detection”.

What about the “binding/infection of Vero E6 cells by spike-pseudotyped lentivirus (GFP-positive cells, FACS)” value [3] of the same substance?
The value was “potently inhibited”.

And the “binding of SARS-CoV-2 spike protein to cells expressing the hACE2 receptor” value [4]?
Its value is “no detectable binding”.

And the “TC50, Best Fit Value” (Hep-2 cells; Post Treatment)?
The value was 30.90 mg/mL.

What about the “TC50, Best Fit Value” (Hep-2 cells; PreTreatment) of the same substance?
Its value is 35.64 mg/mL.

What about the hygroscopicity class [5] of the same substance?
The hygroscopicity class was “very hygroscopic (increase in mass is equal to or greater than 15%)”.

What about the increase in mass [5] of the same substance?
The increase in mass was 21.97%.

What about the “reduction of infection in the plaque assay” value [6] of the same substance?
The value was “up to 95%”.

What about the “reduction of infection vs virus control by nucleocapsid ELISA” value [6] of the same substance?
The value was “up to 98%”.

And the cytotoxicity (Vero E6 cells)?
The cytotoxicity was “not observed”.

What about the CC50 (Calu-3 cells) of the same substance?
The CC50 was 21.76 mg/mL.

And the EC50 [7]?
The EC50 was 1.83 µM.

What about the “SPL7013 in pooled plasma sample” value ([8]; 1% group, one 3 hr sample (called an aberration)) of the same substance?
The value was 0.635 µg/mL.

And the “SPL7013 in pooled plasma samples (LLOQ)” value ([8]; 1% or 3% Nasal Spray 4 times daily for 7 days, Day 1 and Day 7, pre-dose to 6 hr, all samples but one)?
The value was < 0.5 µg/mL.

And the “CPE in four replicates, Test” value [9, 11]?
The value was 0000.

What about the “CPE in four replicates, Test” value [9, 12] of the same substance?
The value was 0000.

And the “Log10 Reduction” value ([9]; 60 seconds exposure)?
Its value is 0.75 log10.

And the “Percent Reduction” value ([9]; 60 seconds exposure)?
The value was 82.22%.

And the “TCID50 (log10), Test” value ([9]; 60 seconds exposure)?
The value was 5.50 log10.

What about the “CPE in four replicates, Test” value ([9]; 60 minutes exposure, dilution (-Log10) -5) of the same substance?
Its value is “+0+0”.

And the “CPE in four replicates, Test” value [9, 13]?
Its value is 0000.

And the “Log10 Reduction” value ([9]; 60 minutes exposure)?
The value was 0.75 log10.

And the “Percent Reduction” value ([9]; 60 minutes exposure)?
Its value is 82.22%.

And the “TCID50 (log10), Test” value ([9]; 60 minutes exposure)?
Its value is 5.25 log10.

What about the “CPE in four replicates, Test” value [10, 11] of the same substance?
The value was 0000.

What about the “CPE in four replicates, Test” value [10, 12] of the same substance?
Its value is 0000.

And the “Log10 Reduction” value ([10]; 60 seconds exposure)?
Its value is 0.50 log10.

What about the “TCID50 (log10), Test” value ([10]; 60 seconds exposure) of the same substance?
The value was 5.25 log10.

What about the “Percent Reduction” value ([10]; 60 seconds exposure, listed as SPL7013 aqueous solution) of the same substance?
The value was 68.38%.

What about the “CPE in four replicates, Test” value ([10]; 60 minutes exposure, dilution (-Log10) -6) of the same substance?
The value was 0000.

What about the “CPE in four replicates, Test” value [10, 13] of the same substance?
Its value is 0000.

What about the “Log10 Reduction” value ([10]; 60 minutes exposure) of the same substance?
Its value is 0.75 log10.

And the “Percent Reduction” value ([10]; 60 minutes exposure)?
Its value is 82.22%.

And the “TCID50 (log10), Test” value ([10]; 60 minutes exposure)?
Its value is 5.00 log10.
